# Data taken from publication PMC11274453, “Structural and Thermodynamic Insights into Dimerization Interfaces of Drosophila Glutathione Transferases” (Biomolecules, 2024).
# T1: DmGSTE1 (Drosophila melanogaster, UniProt Q7KK90)
# T1 construct: gene GstE1; recombinant, codon-optimized gene in pET28a (NdeI/SacI), E. coli; homodimer; residues Ser2-Asp223 described in the structure
# T1 sequence (Q7KK90 1-224): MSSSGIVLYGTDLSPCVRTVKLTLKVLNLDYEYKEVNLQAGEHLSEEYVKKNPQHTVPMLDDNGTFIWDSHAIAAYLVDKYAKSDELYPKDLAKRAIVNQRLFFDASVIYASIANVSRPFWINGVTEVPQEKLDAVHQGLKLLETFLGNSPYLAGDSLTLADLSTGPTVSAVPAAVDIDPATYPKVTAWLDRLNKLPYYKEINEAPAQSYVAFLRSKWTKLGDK
# What was measured:
# DmGSTE1 [1] = biological target: T1, DmGSTE1; assay: X-ray crystal structure, […] Å; format: binding; settings: G site; mixture with reduced glutathione at equal occupancies; sulfoxide H-bonds Ser14
# DmGSTE1 [2] = biological target: T1, DmGSTE1; assay: spectrophotometric CDNB conjugation, […] nm, Michaelis-Menten fit; format: biochemical; settings: 2 mM GSH; 100 mM sodium phosphate pH 6.5; 25 °C; 50 nM enzyme
# [3] = biological target: the molecule itself; assay: crystal structure; sitting-drop vapour diffusion at 4 °C; 15 mg/mL DmGSTE1 in 20 mM Tris-HCl pH 7.4; 20% w/v PEG 8000, 100 mM MES pH 6.0, 200 mM Ca acetate; space group P212121, one dimer in the asymmetric unit; glutathione bound
molecule,measurement,setting,value
N[C@@H](CCC(=O)N[C@@H](CSO)C(=O)NCC(=O)O)C(=O)O [GS8],"X-ray crystal structure, 1.80 Å",DmGSTE1 [1],occupied by a mixture of glutathione and glutathione sulfoxide refined with equal occupancies
"O=[N+]([O-])c1ccc(Cl)c([N+](=O)[O-])c1 [CDNB, 1-chloro-2,4-dinitrobenzene]",Km,DmGSTE1 [2],15 ± 4 µM
"Drosophila melanogaster GSTE1 (enzyme, Glutathione S-transferase E1 (Epsilon class), Drosophila melanogaster; the crystal model is described as Ser2-Tyr88 (N-terminal thioredoxin domain) and Pro89-Asp223 (C-terminal domain); Cloned in pET28a between NdeI and SacI; Crystallised with glutathione / glutathione sulfoxide in the G site; also called DmGSTE1; source: E. coli, purified (GSTrap Fast Flow, eluted with 10 mM reduced glutathione, …)) MSSSGIVLYGTDLSPCVRTVKLTLKVLNLDYEYKEVNLQAGEHLSEEYVKKNPQHTVPMLDDNGTFIWDSHAIAAYLVDKYAKSDELYPKDLAKRAIVNQRLFFDASVIYASIANVSRPFWINGVTEVPQEKLDAVHQGLKLLETFLGNSPYLAGDSLTLADLSTGPTVSAVPAAVDIDPATYPKVTAWLDRLNKLPYYKEINEAPAQSYVAFLRSKWTKLGDK",stoichiometry N,[3],2
